The text below walks through data of patent publication US20140142150A1, “TREATING NEUROPSYCHIATRIC DISORDERS” (THE GENERAL HOSPITAL CORPORATION, priority 2011, published 2014).

The test system of this experiment is stable schizophrenia patients. Put plainly: placebo controlled add-on trial of once-weekly D-cycloserine, negative symptoms by modified SANS total score. In kind it is in vivo, human. On the procedure: Study procedures were approved by the Partners HealthCare and Massachusetts Department of Mental Health institutional review boards, and all participants provided written informed consent. A diagnosis of schizophrenia was confirmed by a consensus diagnostic conference based on results from a clinical diagnostic interview, chart review, and review of clinical history with treating physicians.
Subjects were administered the Positive and Negative Syndrome Scale (PANSS) (Kay et al., Schizophrenia Bulletin 13:261-276) to assess symptom severity by trained raters who were blind to genotype.
DNA was obtained from blood samples and genotyped for variants across two genes: G72 and GCPII. Specific variants were selected on the basis of (1) common occurrence in the general population (minor allele frequency >0.2), (2) coding for non-synonymous mutations in amino acid sequences, and (3) previous support in the literature for an association with schizophrenia. No additional genetic variants were studied. Genotyping was conducted using the MASSARRAY® platform (Sequenom, San Diego, Calif.) using the nucleotide primers shown in Table 2.
Negative symptoms were measured by the modified SANS total score at baseline and at week 8, seven days after the last dose of study drug. […] The sample was subsequently enlarged to 45 subjects and G72 genotype was examined as a predictor of response. G72 is the most-validated schizophrenia risk gene that influences activity at the glycine site of the NMDA receptor complex. One G72 SNP, rs3916971 (M21), that achieved significant association with schizophrenia risk in a meta-analysis performed by “SzGene” (Bertram, Schizophr Bull. 34:806-12, 2008) was examined. In the enlarged sample of 45 subjects, the effect size of D-cycloserine improvement of negative symptoms compared to placebo increased to 0.9 and G72 genotype produced a drug x genotype effect size of 0.7. Within subjects receiving D-cycloserine, G72 genotype predicted response with an effect size of 0.9 and within subjects with the TT genotype, the effect size of D-cycloserine improvement of negative symptoms vs. placebo was 2.3 (FIG. 1).

As for `N[C@@H]1CONC1=O` [D-cycloserine], the “drug x genotype effect size (G72 rs3916971 genotype)” value (enlarged sample of 45 subjects) was found to be 0.7. Moreover, the “effect size of improvement of negative symptoms compared to placebo” value (enlarged sample of 45 subjects, once-weekly 50 mg) stood at 0.9. In addition, the “improvement of negative symptoms (modified SANS total score), effect size” value (once-weekly 50 mg add-on to antipsychotics, 38 stable schizophrenia patients, baseline to week 8, vs placebo) is 0.7. The “patients exhibiting a 20% or greater improvement in SANS total score” value (once-weekly 50 mg, 38 patients, week 8 (placebo group 11%)) was 30%. The “G72 genotype prediction of response, effect size” value (within subjects receiving D-cycloserine, enlarged sample) is recorded as 0.9. In addition, under “within subjects with the TT genotype at G72 rs3916971 (FIG. 1)”, the “effect size of improvement of negative symptoms vs. placebo” value came out at 2.3.
